This is an account of results in patent publication US20070244184A1, “GLYCOSIDASE INHIBITORS AND METHODS OF SYNTHESIZING SAME” (SIMON FRASER UNIVERSITY, priority 2006, published 2007).

Structures can show the parent of a compound that is named as a salt. Where two headings read alike, the source gives them in different places.

In series [1] the target is T1, recombinant human maltase glucoamylase (MGA) (Homo sapiens, UniProt O43451). As to the kind of experiment: MGA inhibition, p-nitrophenyl α-D-glucopyranoside substrate (IC50). It is filed as biochemical. To be noted: p-nitrophenyl α-D-glucopyranoside as substrate. How it is done:
The assays were carried out in 96-well microtiter plates containing 100 mM MES buffer pH 6.5, inhibitor and pNP-glucose as substrate, with a final volume of 50 μL. Reactions were incubated at 37° C. for 35 min and terminated by addition of 50 μL of 0.5 M sodium carbonate. […] All reactions were performed in triplicate and absorbance measurements were averaged to give a final result.

Series [2] addresses T1, recombinant human maltase glucoamylase (MGA). As to the kind of experiment: Recombinant MGA inhibition, maltose substrate, glucose oxidase assay (Ki). The class given is biochemical. To be noted: for Ki: maltose substrate, read-out: Ki against recombinant human MGA. How it is done:
(§1) Enzyme Activity Assays: Measurement of dGMII inhibition was carried out as outlined in the literature.^12 Analysis of recombinant MGA inhibition and determination of the kinetic constants for competitive inhibition have been described.^60 Briefly, analysis of MGA inhibition was performed using maltose as the substrate, and measuring the release of glucose. Reactions were carried out in 100 mM MES buffer pH 6.5 at 37° C. The reaction was stopped by boiling for 3 min. 20 μL aliquots were taken and added to 100 μL of glucose oxidase assay reagent (Sigma) in a 96-well plate. Reactions were developed for 1 hour and absorbance was measured at 450 nm to determine the amount of glucose produced by MGA activity in the reaction. All reactions were performed in triplicate and absorbance measurements were averaged to give a final result.
Enzyme Kinetics: Kinetic parameters of recombinant MGA were determined using the glucose oxidase assay to follow the production of glucose upon addition of enzyme (15 nM) at increasing maltose concentrations (from 2.5 mM to 30 mM) with a reaction time of 15 minutes. The Ki value was determined by measuring the rate of maltose hydrolysis by MGA at varying inhibitor concentrations. Data were plotted in Lineweaver-Burk plots (1/rate vs. 1/[substrate]) and the Ki value was determined by the equation Ki=Km[I]/(Vmax)s−Km, where “s” is the slope of the line. The Ki reported was an average of the Ki values obtained from each of the different inhibitor concentrations.
Enzyme Activity Assay. Analysis of MGA inhibition was performed using maltose as the substrate, and measuring the release of glucose. Reactions were carried out in 100 mM MES buffer pH 6.5 at 37° C. for 15 min. The reaction was stopped by boiling for 3 min. 20 μL aliquots were taken and added to 100 μL of glucose oxidase assay reagent (Sigma) in a 96-well plate. Reactions were allowed to proceed for 1 h and absorbance was measured at 450 nm to determine the amount of glucose produced by MGA activity in the reaction. One unit of activity is defined as the hydrolysis of one […] of maltose per minute. All reactions were performed in triplicate and absorbance measurements were averaged to give a final result.
Enzyme Kinetics. Kinetic parameters of recombinant MGA were determined using the glucose oxidase assay to follow the production of glucose upon addition of enzyme (15 nM) at increasing maltose concentrations (from 1 mM-3.5 mM) with a reaction time of 15 min. The program GraFit 4.0.14 was used to fit the data to the Michaelis-Menten equation and estimate the kinetic parameters, Km and Vmax, of the enzyme. Ki values for each inhibitor were determined by measuring the rate of maltose hydrolysis by MGA at varying inhibitor concentrations. Data were plotted in Lineweaver-Burk plots (1/rate vs. 1/[substrate]) and Ki values were determined by the equation Ki=Km[I]/(Vmax)m−Km, where “m” is the slope of the line. The Ki reported for each inhibitor was estimated by averaging the Ki values obtained from each of the different inhibitor concentrations.

The target of series [3] is T2, Drosophila melanogaster Golgi α-mannosidase II (dGMII) (Drosophila melanogaster, UniProt Q24451).
T2 sequence (Q24451 1-1108): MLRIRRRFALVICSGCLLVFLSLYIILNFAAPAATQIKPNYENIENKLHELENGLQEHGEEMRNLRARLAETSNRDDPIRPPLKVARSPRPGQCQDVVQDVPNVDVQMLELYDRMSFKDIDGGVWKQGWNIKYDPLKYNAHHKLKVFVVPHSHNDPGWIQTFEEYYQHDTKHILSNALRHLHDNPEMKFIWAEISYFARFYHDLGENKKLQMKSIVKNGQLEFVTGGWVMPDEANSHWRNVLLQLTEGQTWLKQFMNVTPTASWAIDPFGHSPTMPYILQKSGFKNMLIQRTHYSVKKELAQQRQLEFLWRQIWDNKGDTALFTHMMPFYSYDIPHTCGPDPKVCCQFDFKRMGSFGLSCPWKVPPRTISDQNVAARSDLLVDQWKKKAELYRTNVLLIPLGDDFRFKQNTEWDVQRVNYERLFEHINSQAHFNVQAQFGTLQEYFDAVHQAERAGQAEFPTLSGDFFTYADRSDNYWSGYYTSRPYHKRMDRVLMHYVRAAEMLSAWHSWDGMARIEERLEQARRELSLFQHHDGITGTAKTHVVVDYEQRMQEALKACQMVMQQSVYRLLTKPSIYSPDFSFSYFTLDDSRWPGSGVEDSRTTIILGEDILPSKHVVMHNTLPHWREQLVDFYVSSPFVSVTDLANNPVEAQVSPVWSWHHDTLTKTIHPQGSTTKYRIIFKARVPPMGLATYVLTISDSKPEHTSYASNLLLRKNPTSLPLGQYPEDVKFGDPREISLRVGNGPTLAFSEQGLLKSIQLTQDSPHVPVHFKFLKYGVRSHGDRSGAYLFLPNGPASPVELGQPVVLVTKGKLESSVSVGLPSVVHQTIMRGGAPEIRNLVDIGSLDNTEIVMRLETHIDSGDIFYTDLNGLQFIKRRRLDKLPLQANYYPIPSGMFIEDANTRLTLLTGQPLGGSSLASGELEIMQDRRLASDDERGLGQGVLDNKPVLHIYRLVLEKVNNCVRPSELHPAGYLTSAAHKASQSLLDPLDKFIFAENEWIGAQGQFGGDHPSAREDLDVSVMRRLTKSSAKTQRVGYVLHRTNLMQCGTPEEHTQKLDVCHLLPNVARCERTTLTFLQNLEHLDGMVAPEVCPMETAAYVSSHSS
As to the kind of experiment: dGMII inhibition. It is filed as biochemical. How it is done:
as §1

In series [4] the target is T2, Drosophila melanogaster Golgi α-mannosidase II (dGMII). Conditions: read-out: IC50 against dGMII, cited from earlier work.
The target of series [5] is T1, recombinant human maltase glucoamylase (MGA). To be noted: cited from earlier work.

T1 sequence (O43451 87-954 limits assumed): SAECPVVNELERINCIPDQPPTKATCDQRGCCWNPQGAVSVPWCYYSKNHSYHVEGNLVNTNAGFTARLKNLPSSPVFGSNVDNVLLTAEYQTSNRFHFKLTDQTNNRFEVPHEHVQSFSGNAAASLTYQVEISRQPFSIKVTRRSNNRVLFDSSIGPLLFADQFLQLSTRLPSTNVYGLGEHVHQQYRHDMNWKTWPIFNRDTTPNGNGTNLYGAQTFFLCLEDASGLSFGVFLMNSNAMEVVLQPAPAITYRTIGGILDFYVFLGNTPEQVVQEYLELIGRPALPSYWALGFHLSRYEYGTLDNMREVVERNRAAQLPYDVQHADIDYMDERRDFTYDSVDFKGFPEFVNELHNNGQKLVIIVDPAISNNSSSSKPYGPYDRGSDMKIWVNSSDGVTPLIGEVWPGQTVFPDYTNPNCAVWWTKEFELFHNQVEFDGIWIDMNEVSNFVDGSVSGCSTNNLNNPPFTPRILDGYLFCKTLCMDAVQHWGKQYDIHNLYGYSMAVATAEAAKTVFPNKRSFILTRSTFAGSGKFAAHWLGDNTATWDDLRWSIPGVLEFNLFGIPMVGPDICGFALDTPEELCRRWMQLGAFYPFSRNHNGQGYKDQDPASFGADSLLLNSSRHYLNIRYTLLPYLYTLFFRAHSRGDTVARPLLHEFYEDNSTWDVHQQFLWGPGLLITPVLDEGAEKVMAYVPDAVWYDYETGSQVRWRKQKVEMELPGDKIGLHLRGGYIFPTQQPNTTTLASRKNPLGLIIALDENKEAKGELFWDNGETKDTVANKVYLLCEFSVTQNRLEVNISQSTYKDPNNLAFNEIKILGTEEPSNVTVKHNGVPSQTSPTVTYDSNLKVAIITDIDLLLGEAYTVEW

By IC50 is commonly meant the concentration needed to halve the response being measured. As for `CCCCCCCCCCCCCC[S+]1CC(O)C(O)C1CO` [Compound 44, 1,4-Dideoxy-1,4-[(1-tetradecyl)-(R)-episulfoniumylidene]-D-arabinitol triflate], the IC50 in series [1] is 25 µM.

Turning to `CCCCCCCCCCCCCC[S+]1CC(O)C(O)C1CO` [Compound 48, 1,4-Dideoxy-1,4-[(1-tetradecyl)-(R)-episulfoniumylidene]-D-arabinitol chloride], the IC50 in series [1] was 30 µM.

For orientation: Ki means the dissociation constant of the complex between target and ligand, obtained from inhibition or displacement. As for `O=C([O-])C(O)C(O)C(O)C[S+]1CC(O)C(O)C1CO` [Compound 5, 1,4-Dideoxy-1,4-[[(2′S,3′S,4′R)-2′,3′,4′-trihydroxy-4′-carboxybutyl]-episulfoniumyl-idene]-D-arabinitol inner salt], the inhibition constant Ki in series [2] was 10 µM.

The melting point is the temperature of the solid-liquid transition. Compound `CCCCCCCCCCCCCC[S+]1CC(O)C(O)C1CO` (as salt: triflate) [Compound 44, 1,4-Dideoxy-1,4-[(1-tetradecyl)-(R)-episulfoniumylidene]-D-arabinitol triflate] showed a melting point of 69 to 71 °C.

For the compound `O=C(O)[C@@H](O)[C@@H](O)[C@H](O)[C@@H](O)CN1C[C@@H](O)[C@H](O)[C@H]1CO` [Compound 21, 6′-((1,4-Dideoxy-1,4-imino-D-arabinitol)-4-N-ammonium)-6′-deoxy-L-gulonic acid hydro-chloride], in series [2], the Ki was found to be 21 µM. Besides, in series [3] (0.3 mM vs approximately 7.5 mM), the “improvement of dGMII inhibition over salacinol, kotalanol and other analogues” value is 25 fold. In addition, the IC50 in series [3] (read-out: IC50 against dGMII) is 300 µM.

Turning to `O=C([O-])[C@H](O)[C@H](O)[C@H](O)C[S@@+]1C[C@H](O)[C@@H](O)[C@@H]1CO` [Compound 4, 1,4-Dideoxy-1,4-[[(2′S,3′S,4′R)-2′,3′,4′-trihydroxy-4′-carboxybutyl]-episulfoniumyl-idene]-L-arabinitol inner salt], the “inhibitory activity against recombinant human MGA (in words)” value in series [2] is given as “Only compound 5, with the D-arabinitol configuration in the heterocyclic ring displayed by salacinol 1, was found to be active”.

Turning to `O=S(=O)([O-])OC(CO)C(O)C[S+]1CC(O)C(O)C1CO` (stereo not shown) [salacinol], in series [4], the IC50 was approximately 7500 µM.

With `O=S(=O)([O-])OC(CO)C(O)C(O)C[Se+]1CC(O)C(O)C1CO` [Compound 81, 1,4-Dideoxy-1,4[[2R,3R,4R]-2,3,5-trihydroxy-4-(sulfooxy)-pentyl]-epi-selenoniumylidene]-D-arabinitol Inner salt], the “inhibitory activity against recombinant human MGA (in words)” value in series [2] is reported as “not active”.

In the case of `O=S(=O)([O-])OC(CO)C(O)C(O)C[S+]1CC(O)C(O)C1CO` (stereo not shown) [Compound 78], the Ki in series [2] came to 20 ± 4 µM.

For the compound `O=S(=O)([O-])O[C@H](CO)[C@H](O)[C@@H](O)C[S+]1C[C@@H](O)[C@H](O)[C@H]1CO` (stereo partly drawn) [Compound 80, 1,4-Dideoxy-1,4[[2R,3R,4R]-2,3,5-trihydroxy-4-(sulfooxy)-pentyl]-epi-sulfoniumylidene]-D-arabinitol Inner salt], the “inhibitory activity against recombinant human MGA (in words)” value in series [2] is listed as “not active”.

As for `O=S(=O)([O-])OC(CO)C(O)C[Se+]1CC(O)C(O)C1CO` (stereo not shown) [blintol], the Ki in series [5] (read-out: Ki against MGA, reference compounds, unit inferred) is 0.49 ± 0.05 µM. In addition, the IC50 in series [4] is approximately 7500 µM.

For `CCCCCC[S+]1CC(O)C(O)C1CO` [Compound 46, 1,4-Dideoxy-1,4-[(1-hexyl)-(R)-episulfoniumylidene]-D-arabinitol chloride], in series [1], the IC50 was determined as 50 µM.

Take `CC(C)CC[S+]1CC(O)C(O)C1CO` [Compound 50, 1,4-Dideoxy-1,4-[[1-(3-methyl)-butyl]-(R)-episulfoniumylidene]-D-arabinitol chloride]: the IC50 in series [1] amounted to 50 µM.

For the compound `O[C@H]1[C@H]2[C@H](O)CCCN2C[C@H]1O` [swainsonine], the half-inhibitory concentration (IC50) in series [4] (swainsonine, literature value) is 0.02 to 0.04 µM.

Take `O=S(=O)([O-])OC(C(O)C[S+]1CC(O)C(O)C1CO)C(O)C(O)C(O)CO` (stereo not shown) [kotalanol]: in series [4], the half-inhibitory concentration (IC50) was approximately 7500 µM.

In the case of `CCCCCCCCCCCCCCCCCC[S+]1CC(O)C(O)C1CO` [Compound 49, 1,4-Dideoxy-1,4-[(1-octadecyl)-(R)-episulfoniumylidene]-D-arabiiiitol chloride], in series [1], the IC50 came out at 15 µM.

`CCCCCCCCCCCCCC[S+]1CC(O)C(O)C1CO` (as salt: chloride) [Compound 48, 1,4-Dideoxy-1,4-[(1-tetradecyl)-(R)-episulfoniumylidene]-D-arabinitol chloride] registered a melting point of 86 to 88 °C.

Regarding `O=S(=O)([O-])O[C@@H]([C@H](O)C[S@+]1C[C@@H](O)[C@H](O)[C@H]1CO)[C@@H](O)CO` [Compound 89], the “inhibitory activity against MGA (in words)” value in series [5] was “inactive”.

Turning to `O=S(=O)([O-])OC(CO)C(O)C(O)C[Se+]1CC(O)C(O)C1CO` [Compound 79, 1,4-Dideoxy-1,4[[2S,3S,4S]-2,3,5-trihydroxy-4-(sulfooxy)-pentyl]-epi-selenoniumylidene]-D-arabinitol Inner salt], the inhibition constant Ki in series [2] turned out to be 53 ± 5 µM.

As to `O=C(O)[C@@H](O)[C@@H](O)[C@H](O)[C@@H](O)CN1C[C@H](O)[C@@H](O)[C@@H]1CO` [Compound 20, 6′-((1,4-Dideoxy-1,4-imino-L-arabinitol)-4-N-ammonium)-6′-deoxy-L-gulonate], the “inhibitory activity against recombinant human MGA (in words)” value in series [2] is recorded as “not active on either enzyme”. Also, in series [3], the “activity against dGMII (in words)” value is “not active on either enzyme”.

The compound `CCCCCCCCCCCCCCCCCC[S+]1CC(O)C(O)C1CO` (as salt: chloride) [Compound 49, 1,4-Dideoxy-1,4-[(1-octadecyl)-(R)-episulfoniumylidene]-D-arabiiiitol chloride] displayed a melting point of 95 to 97 °C.
